{"source": "paper PMC5823406", "about": "“Vehicle development, pharmacokinetics and toxicity of the anti-invasive agent 4-fluoro-3’,4’,5’-trimethoxychalcone in rodents” (PLoS ONE, 2018)", "key": {"CYP 1A2": {"target": "T1, CYP 1A2 (Homo sapiens, UniProt P05177)", "T1 sequence (P05177 1-516)": "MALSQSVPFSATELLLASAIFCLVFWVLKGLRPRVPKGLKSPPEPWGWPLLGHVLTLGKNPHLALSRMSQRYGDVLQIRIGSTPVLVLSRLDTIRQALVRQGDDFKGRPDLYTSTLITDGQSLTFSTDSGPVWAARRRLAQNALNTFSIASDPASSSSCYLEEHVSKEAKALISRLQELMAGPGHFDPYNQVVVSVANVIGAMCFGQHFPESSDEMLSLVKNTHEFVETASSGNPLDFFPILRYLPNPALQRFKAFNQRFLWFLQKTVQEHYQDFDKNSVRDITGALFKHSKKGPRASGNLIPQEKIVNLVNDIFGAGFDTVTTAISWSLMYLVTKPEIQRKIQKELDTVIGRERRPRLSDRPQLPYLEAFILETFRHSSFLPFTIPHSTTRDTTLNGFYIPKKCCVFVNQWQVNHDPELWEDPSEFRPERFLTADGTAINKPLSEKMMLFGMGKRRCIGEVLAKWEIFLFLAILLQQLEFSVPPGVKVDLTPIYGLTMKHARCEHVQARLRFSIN", "assay": "CYP inhibition 1A2 (CEC substrate)", "type": "in vitro ADME", "details": "10 μM", "from_the_text": "(§1) Table 3 In vitro physicochemical, stability and metabolism data. | column: Value"}, "[1]": {"assay": "LogD, partition coefficient n-octanol/PBS", "type": "physicochemical", "details": "pH 7.4, 100 μM", "from_the_text": "as §1"}, "[2]": {"assay": "Whole blood C16 determination after 7-day dosing via medicated gels", "type": "in vivo, mouse", "details": "for Blood concentration of C16: Average±SD", "experimental": "On the evening of day 6, blood was collected via the tail vein for the 0, 100 and 300 mg/kg C16 cohorts for determination of the whole blood C16 level. On the morning of day 7, mice of the 0, 100 and 300 mg/kg C16 cohorts were anesthetized by IP injection with 250 mg/kg of Avertin (20 mL/kg, preparation see Section E in S1 File). Blood for C16 determination and hematological and biochemical analysis was collected via cardiac exsanguination (600 μL to 1 mL). Detailed analysis protocols are described below. Afterward, animals were sacrificed by cervical dislocation.\nBlood samples (25 μL) were collected via the tail vein or cardiac puncture (last time point). Blood was pipetted into a tube with 25 μL heparinized water (1 μL of sodium heparin (1000 units/mL) + 24 μL water) within 30 seconds of collection. The sample was pipetted up and down five times, immediately frozen on dry ice, and stored at -60°C to -80°C until analysis.\nE.C. Whole blood C16 levels\nTable AA. Individual blood concentration (ng/mL) for C16 in cohorts on medicated gel .\nCohort and animal Evening Morning\nBLOQ: below the limit of quantitation (0.5 ng/mL). Samples that were below the limit of quantification were not used in the calculation of\nTable BB. […]"}, "[3]": {"assay": "Liver microsome stability", "type": "in vitro ADME", "details": "liver microsomes (rat, Sprague-Dawley)", "from_the_text": "as §1"}, "Caco-2": {"test_system": "Caco-2", "assay": "Caco-2 permeability and recovery", "type": "in vitro ADME", "details": "Caco-2, pH 7.4/7.4; 10 μM", "from_the_text": "as §1"}, "MCF-7/6": {"test_system": "MCF-7/6", "parameters": "method as in PMID 26204510", "details": "cited from earlier work"}}, "note": "Several values for one entry are separate records, joined by “and”; a condition that tells them apart may be missing. Identical values can stand only once.", "data": [{"compound": "COc1cc(C(=O)/C=C/c2ccc(F)cc2)cc(OC)c1OC", "note": "[C16, 4-fluoro-3’,4’,5’-trimethoxychalcone]", "values": [{"measurement": "CYP inhibition 1A2 (CEC substrate)", "setting": "CYP 1A2", "value": "36 % inhibition of control"}, {"measurement": "LogD", "setting": "[1]", "value": 3.85}, {"measurement": "Blood concentration of C16", "setting": "[2]; 100 mg/kg cohort on medicated gel, Evening (day 6)", "value": "8.48 ± 2.28", "unit": "ng/mL"}, {"measurement": "Individual blood concentration of C16", "setting": "[2]; 100 mg/kg cohort on medicated gel, Evening, animals 2-1 to 2-4", "value": "8.39 ng/mL and 5.39 ng/mL and 9.33 ng/mL and 10.8 ng/mL"}, {"measurement": "Blood concentration of C16", "setting": "[2]; 100 mg/kg cohort on medicated gel, Morning (day 7)", "value": "31.2 ± 26.0", "unit": "ng/mL"}, {"measurement": "Individual blood concentration of C16", "setting": "[2]; 100 mg/kg cohort on medicated gel, Morning, animals 2-1 to 2-4", "value": "11.5 ng/mL and 6.14 ng/mL and 56.2 ng/mL and 50.8 ng/mL"}, {"measurement": "Blood concentration of C16", "setting": "[2]; 300 mg/kg cohort on medicated gel, Evening (day 6)", "value": "7.63 ± 5.07", "unit": "ng/mL"}, {"measurement": "Individual blood concentration of C16", "setting": "[2]; 300 mg/kg cohort on medicated gel, Evening, animals 3-1, 3-3, 3-4", "value": "3.51 ng/mL and 13.3 ng/mL and 6.09 ng/mL"}, {"measurement": "Blood concentration of C16", "setting": "[2]; 300 mg/kg cohort on medicated gel, Morning (day 7)", "value": "38.1 ± 27.8", "unit": "ng/mL"}, {"measurement": "Individual blood concentration of C16", "setting": "[2]; 300 mg/kg cohort on medicated gel, Morning, animals 3-1 to 3-4", "value": "30.1 ng/mL and 21.6 ng/mL and 79.3 ng/mL and 21.3 ng/mL"}, {"measurement": "Whole blood C16 concentrations versus projected EC50", "setting": "[2]; medicated gel, day 6 evening and day 7 morning", "value": "above its projected EC50"}, {"measurement": "half-life at 0.1 μM", "setting": "[3]", "value": 20, "unit": "min"}, {"measurement": "microsomal CLint at 0.1 μM", "setting": "[3]; read-out: Intr. clearance", "value": 339, "unit": "µL/min/mg"}, {"measurement": "Permeability A-B", "setting": "Caco-2", "value": "10.4 10^−6 cm/s"}, {"measurement": "Permeability A-B: recovery", "setting": "Caco-2", "value": 17, "unit": "%"}, {"measurement": "Permeability B-A", "setting": "Caco-2", "value": "4.9 10^−6 cm/s"}, {"measurement": "Permeability B-A: recovery", "setting": "Caco-2", "value": 66, "unit": "%"}, {"measurement": "Activity level in 3D confrontation culture (chick heart invasion assay, MCF-7/6)", "setting": "MCF-7/6", "value": 10, "unit": "nM"}]}]}
